# From patent publication US20110190365A1, “Insecticidal 4-phenyl-1H-pyrazoles” (Bayer Crop Science AG, priority 2008, published 2011)
# Test: log P by HPLC on a reversed-phase column (C18), EEC Directive 79/831 Annex V.A8
# Format: physicochemical
# Conditions: HCOOH
# Protocol: The stated log P values were determined in accordance with EEC Directive 79/831 Annex V.A8 by HPLC (High Performance Liquid Chromatography) using a reversed-phase column (C18).
row,Compound,log P (HCOOH)
1,COC(CNC(=O)c1ccc(-n2nc(C(F)(F)F)c(-c3cc(Cl)cc(Cl)c3)c2N)cc1C)OC [I-A-Q2-224],I-A-Q2-224: log P (HCOOH): 3.78
2,Cc1ncc(CNC(=O)c2ccc(-n3nc(C(F)(F)F)c(-c4cc(Cl)cc(Cl)c4)c3N)cc2C)c(N)n1 [I-A-Q2-053],I-A-Q2-053: log P (HCOOH): 2.04
3,Nc1c(-c2ccc(Cl)c(Cl)c2)c(C(F)(F)F)nn1-c1ccc(C(=O)NCc2ccccn2)cc1 [I-A-Q2-158],I-A-Q2-158: log P (HCOOH): 2.85
4,Cc1cc(-n2nc(C(F)(F)F)c(-c3cc(Cl)cc(Cl)c3)c2N)ccc1C(=O)NCc1cc(C(F)(F)F)c(Cl)cn1 [I-A-Q2-207],I-A-Q2-207: log P (HCOOH): 4.83
5,Cc1cc(-n2nc(C(F)(F)F)c(-c3cc(Cl)cc(Cl)c3)c2N)ccc1C(=O)NCc1cc(-c2ccccc2)ccn1 [I-A-Q2-206],I-A-Q2-206: log P (HCOOH): 4.29
6,Cc1cc(-n2nc(C(F)(F)F)c(-c3cc(Cl)cc(Cl)c3)c2N)ccc1C(=O)NCc1cccc(Cl)c1 [I-A-Q2-215],I-A-Q2-215: log P (HCOOH): 4.76
7,Cc1cc(-n2nc(C(F)(F)F)c(-c3cc(Cl)cc(Cl)c3)c2N)ccc1C(=O)NC1CCCCC1C(F)(F)F (stereo not drawn) [I-A-Q2-274],I-A-Q2-274: log P (HCOOH): 4.95
8,Cc1cc(-n2nc(C(F)(F)F)c(-c3cc(Cl)cc(Cl)c3)c2N)ccc1C(=O)N(C)C(C)c1ccncc1 (stereo not drawn) [I-A-Q2-211],I-A-Q2-211: log P (HCOOH): 2.89
9,CC(NC(=O)c1ccc(-n2nc(C(F)(F)F)c(-c3ccc(Br)cc3)c2N)cc1)C(F)(F)F (stereo not drawn) [I-A-Q2-188],I-A-Q2-188: log P (HCOOH): 3.78
10,CCCNC(=O)c1ccc(-n2nc(C(F)(F)F)c(-c3cc(Cl)cc(Cl)c3)c2N)cc1 [I-A-Q2-151],I-A-Q2-151: log P (HCOOH): 4.06
11,CCCc1nn(-c2ccc(C(=O)NCc3ccccn3)c(C)c2)c(N)c1-c1ccc(Cl)cc1 [I-A-Q2-380],I-A-Q2-380: log P (HCOOH): 2.53
12,COc1ccc(-c2c(C)nn(-c3ccc(C(=O)NCC(F)(F)C(F)F)c(C)c3)c2N)cc1 [I-A-Q2-324],I-A-Q2-324: log P (HCOOH): 2.30
13,Cc1cc(-n2nc(C(F)(F)F)c(-c3ccc(I)cc3)c2N)ccc1C(=O)NCC(F)(F)C(F)F [I-A-Q2-313],I-A-Q2-313: log P (HCOOH): 3.85
14,Cc1cc(-n2nc(C3CC3)c(-c3ccc(Cl)cc3)c2N)ccc1C(=O)NCc1ccccn1 [I-A-Q2-381],I-A-Q2-381: log P (HCOOH): 2.46
15,CC(C)NC(=O)c1ccc(-n2nc(C(F)(F)F)c(-c3cc(Cl)cc(Cl)c3)c2N)nc1 [I-A-Q2-097],I-A-Q2-097: log P (HCOOH): 4.64
16,Cc1cc(-n2nc(C(F)(F)F)c(-c3cc(Cl)cc(Cl)c3)c2N)ccc1C(=O)NCc1cccnc1 [I-A-Q2-216],I-A-Q2-216: log P (HCOOH): 2.57
17,Cc1cc(-n2nc(C(F)(F)F)c(-c3cc(Cl)cc(Cl)c3)c2N)ccc1C(=O)NCCc1ccccn1 [I-A-Q2-226],I-A-Q2-226: log P (HCOOH): 2.50
18,Cc1cc(-n2nc(C(F)(F)F)c(-c3ccc(Cl)c(Cl)c3)c2N)ccc1C(=O)NCc1ccccn1 [I-A-Q2-347],I-A-Q2-347: log P (HCOOH): 3.11

row,Compound,log P (HCOOH)
1,Nc1c(-c2cc(Cl)cc(Cl)c2)c(C(F)(F)F)nn1-c1ccc(C(=O)NCc2cccnc2)cc1 [I-A-Q2-143],I-A-Q2-143: log P (HCOOH): 2.59
2,Cc1nc(CNC(=O)c2ccc(-n3nc(C(F)(F)F)c(-c4cc(Cl)cc(Cl)c4)c3N)cc2C)c(C)o1 [I-A-Q2-251],I-A-Q2-251: log P (HCOOH): 3.84
3,CC(NC(=O)c1ccc(-n2nc(C(F)(F)F)c(-c3ccc(Cl)c(Cl)c3)c2N)cc1)C(F)(F)F (stereo not drawn) [I-A-Q2-155],I-A-Q2-155: log P (HCOOH): 4.11
4,Cc1cc(-n2nc(C(F)(F)F)c(I)c2N)ccc1C(=O)O [XI-A-087],XI-A-087: log P (HCOOH): 2.58
5,Cc1cc(-n2nc(C(F)(F)F)c(-c3cc(Cl)cc(Cl)c3)c2N)ccc1C(=O)NC1CCCC1 [I-A-Q2-223],I-A-Q2-223: log P (HCOOH): 4.45
6,Nc1c(-c2cc(Cl)cc(Cl)c2)c(C(F)(F)F)nn1-c1ccc(C(=O)NCC2CC2)cc1 [I-A-Q2-149],I-A-Q2-149: log P (HCOOH): 4.15
7,Cc1cc(-n2nc(C(F)(F)F)c(-c3cc(Cl)cc(Cl)c3)c2N)ccc1C(=O)NC(C)c1ccccc1 (stereo not drawn) [I-A-Q2-016],I-A-Q2-016: log P (HCOOH): 4.79
8,CC(NC(=O)c1ccc(-n2nc(C(F)(F)F)c(-c3cccc(Cl)c3)c2N)cc1)c1ccccc1 (stereo not drawn) [I-A-Q2-089],I-A-Q2-089: log P (HCOOH): 3.89
9,COC(=O)c1ccc(-n2nc(C(F)(F)F)c(I)c2N)cc1C [XI-A-083],XI-A-083: log P (HCOOH): 3.48
10,Cc1cc(-n2nc(C(F)(F)F)c(-c3ccc(I)cc3)c2N)ccc1C(=O)NCc1ccccn1 [I-A-Q2-356],I-A-Q2-356: log P (HCOOH): 2.93
11,CSc1c(-c2cc(Cl)cc(C(F)(F)F)c2)c(C(F)(F)F)nn1-c1ccc(C(=O)NC(C)C(F)(F)F)cc1 (stereo not drawn) [I-A-Q2-068],I-A-Q2-068: log P (HCOOH): 5.35
12,Cc1cc(-n2nc(C(F)(F)F)c(-c3ccc(Cl)c(Cl)c3)c2N)ccc1C(=O)NC(C)C(F)(F)F (stereo not drawn) [I-A-Q2-019],I-A-Q2-019: log P (HCOOH): 4.57
13,Nc1c(-c2ccc(Cl)cc2)c(-c2ccccc2)nn1-c1ccc(C(=O)NCc2ncccn2)cc1 [I-A-Q2-076],I-A-Q2-076: log P (HCOOH): 2.89
14,Cc1cc(-n2nc(C)c(-c3c(F)cccc3F)c2N)ccc1C(=O)NCc1ccccn1 [I-A-Q2-369],I-A-Q2-369: log P (HCOOH): 1.52
15,Cc1cc(-n2nc(C)c(-c3cc(F)ccc3F)c2N)ccc1C(=O)NCc1ccccn1 [I-A-Q2-372],I-A-Q2-372: log P (HCOOH): 1.61
16,Cc1cc(-n2nc(C(F)(F)F)c(-c3cc(Cl)cc(Cl)c3)c2N)ccc1C(=O)NCCN1CCOCC1 [I-A-Q2-264],I-A-Q2-264: log P (HCOOH): 1.99
17,CC(C)NC(=O)c1ccc(-n2nc(C(F)(F)F)c(-c3ccc(Cl)cc3)c2N)cc1 [I-A-Q2-161],I-A-Q2-161: log P (HCOOH): 3.37
18,Cc1cc(-n2nc(C(F)(F)F)c(-c3cc(Cl)cc(Cl)c3)c2N)ccc1C(=O)NC(C)Cn1cccn1 (stereo not drawn) [I-A-Q2-243],I-A-Q2-243: log P (HCOOH): 3.78

# Same assay, conditions: HCOOH; Table 4, compounds of formula I-A-Q4
row,Compound,log P (HCOOH)
1,Nc1c(-c2ccc(Br)cc2)c(C(F)(F)F)nn1-c1ccc(Cl)cn1 [I-A-Q4-042],I-A-Q4-042: log P (HCOOH): 5.22
2,CC(C)c1nn(-c2ccc(Cl)cn2)c(N)c1-c1ccc(Cl)cc1 [I-A-Q4-027],I-A-Q4-027: log P (HCOOH): 5.73
3,FC(F)(F)c1nn(-c2ccc(I)cc2)c(I)c1-c1cc(Cl)cc(Cl)c1 [I-A-Q4-018],I-A-Q4-018: log P (HCOOH): 6.50
4,Cc1nn(-c2ccc(Cl)cn2)c(N)c1-c1cc(F)ccc1F [I-A-Q4-033],I-A-Q4-033: log P (HCOOH): 3.84
5,Cc1nn(-c2ccc(Cl)cn2)c(N)c1-c1c(F)cccc1Cl [I-A-Q4-031],I-A-Q4-031: log P (HCOOH): 3.78
6,N#Cc1cc(-n2nc(C(F)(F)F)c(-c3cc(Cl)cc(Cl)c3)c2N)ccc1I [I-A-Q4-102],I-A-Q4-102: log P (HCOOH): 5.94
7,CN(C)c1cc(-n2nc(C(F)(F)F)c(-c3cc(Cl)cc(Cl)c3)c2N)ccc1C(=O)O [I-A-Q4-121],I-A-Q4-121: log P (HCOOH): 3.07
8,Nc1c(-c2cc(Cl)cc(Cl)c2)c(C(F)(F)F)nn1-c1ccc(C(=O)O)c(C(F)(F)F)c1 [I-A-Q4-115],I-A-Q4-115: log P (HCOOH): 4.22
9,N#Cc1cc(-n2nc(C(F)(F)F)c(-c3cc(Cl)cc(Cl)c3)c2N)ccc1S(=O)(=O)NC1CCC1 [I-A-Q4-122],I-A-Q4-122: log P (HCOOH): 4.69
10,Nc1c(-c2cc(Cl)cc(C(F)(F)F)c2)c(C(F)(F)F)nn1-c1ccc(Cl)cn1 [I-A-Q4-016],I-A-Q4-016: log P (HCOOH): 5.76
11,CCCc1nn(-c2ccc(Cl)cn2)c(N)c1-c1ccc(Cl)cc1 [I-A-Q4-025],I-A-Q4-025: log P (HCOOH): 5.51
12,N#Cc1cc(-n2nc(C(F)(F)F)c(-c3cc(Cl)cc(Cl)c3)c2N)ccc1F [I-A-Q4-103],I-A-Q4-103: log P (HCOOH): 4.44

# Same assay, conditions: HCOOH; compounds of the formula (IX), Table 11
row,Compound,log P (HCOOH)
1,CC(=O)Nc1[nH]nc(C(F)(F)F)c1-c1ccc(Cl)cc1Cl [IX-204],IX-204: log P (HCOOH): 2.79

# Same assay, conditions: HPLC, reversed-phase C18, mobile phase with formic acid
row,Compound,log P (HCOOH)
1,Cc1nn(-c2ccc(-n3cncn3)c(C#N)c2)c(N)c1-c1cccc(Cl)c1 [I-A-Q1-053],I-A-Q1-053: log P (HCOOH): 2.66
2,N#Cc1cc(-n2nc(C(F)(F)F)c(-c3cc(Cl)cc(Cl)c3)c2N)ccc1-n1cc(Cl)cn1 [I-A-Q1-084],I-A-Q1-084: log P (HCOOH): 4.70
3,N#Cc1cc(-n2nc(C(F)(F)F)c(-c3cc(Cl)cc(Cl)c3)c2N)ccc1-n1cc(F)cn1 [I-A-Q1-092],I-A-Q1-092: log P (HCOOH): 4.40
4,Cc1nn(-c2ccc(-n3cncn3)c(C#N)c2)c(N)c1-c1c(F)cccc1F [I-A-Q1-054],I-A-Q1-054: log P (HCOOH): 2.18
5,CCNC(=O)NCc1ccc(-n2nc(C(F)(F)F)c(-c3cc(Cl)cc(Cl)c3)c2N)cc1Cl [I-A-Q3-024],I-A-Q3-024: log P (HCOOH): 3.85
6,N#Cc1cc(-n2nc(C(F)(F)Cl)c(-c3cc(Cl)cc(C(F)(F)F)c3)c2N)ccc1-n1cncn1 [I-A-Q1-049],I-A-Q1-049: log P (HCOOH): 4.11
7,CCc1nn(-c2ccc(-n3cncn3)c(C#N)c2)c(N)c1-c1ccc(Cl)cc1 [I-A-Q1-062],I-A-Q1-062: log P (HCOOH): 3.09
8,Nc1c(-c2cc(Cl)cc(Cl)c2)c(C(F)(F)F)nn1-c1ccc(CNC(=O)CC(F)(F)F)c(Cl)c1 [I-A-Q3-021],I-A-Q3-021: log P (HCOOH): 4.48
